pIC50: −log10 of the molar value.
Legend:
[1] = biological target: T1, human Kv4.3 (Homo sapiens, UniProt Q9UK17); experiment: Electropharyngeogram (EPG) recording on dissected pharynxes of transgenic C. elegans strain UG1755
T1 construct: expressed in transfected cells; host or cells: transgenic C. elegans strain UG1755 (N2 injected with plasmid pGV8, integrated array)
T1 sequence (Q9UK17 1-655): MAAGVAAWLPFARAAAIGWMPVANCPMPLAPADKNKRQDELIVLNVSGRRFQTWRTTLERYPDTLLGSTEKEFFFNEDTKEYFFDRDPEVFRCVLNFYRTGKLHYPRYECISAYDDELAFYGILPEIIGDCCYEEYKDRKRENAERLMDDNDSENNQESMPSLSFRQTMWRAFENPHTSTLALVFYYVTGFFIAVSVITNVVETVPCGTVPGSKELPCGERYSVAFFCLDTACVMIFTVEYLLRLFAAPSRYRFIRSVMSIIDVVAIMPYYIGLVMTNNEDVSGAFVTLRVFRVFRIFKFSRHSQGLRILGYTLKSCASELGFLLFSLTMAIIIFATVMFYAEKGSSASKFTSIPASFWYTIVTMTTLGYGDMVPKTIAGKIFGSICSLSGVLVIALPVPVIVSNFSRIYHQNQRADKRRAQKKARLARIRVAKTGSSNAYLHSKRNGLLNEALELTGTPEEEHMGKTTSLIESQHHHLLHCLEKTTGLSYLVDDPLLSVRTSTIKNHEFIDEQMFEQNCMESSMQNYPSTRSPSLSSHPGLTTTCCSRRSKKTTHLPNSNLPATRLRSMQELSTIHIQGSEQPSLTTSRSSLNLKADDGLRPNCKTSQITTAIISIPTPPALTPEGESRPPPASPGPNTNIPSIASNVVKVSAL
Description: The method to describe the construction of a transgenic C. elegans strain expressing human Kv4.3 has been described in WO 03/097682. Briefly, the actual used strain UG1755 has been generated by microinjection into the gonad of a wild-type strain N2 with a mix of 5 ng/μl plasmid pGV8 (human Kv4.3), 20 ng/μl pDW2821 (GFP-marker) and 40 ng/ul genomic C. elegans DNA. Transgenic animals have been isolated and submitted to integration of the extra-chromosomal array into the genome of C. elegans. A line with 50% transmission of the functional expressed human Kv4.3 has been mutagenized with gamma irradiation using a Cobalt source. About 12000 F2 animals have been singled out and their progeny has been screened for the 100% transmission of the GFP marker. Lines with 100% transmission of GFP have been considered as potentially integrated. These lines have been further tested and out-crossed with N2 strain two-times. All lines obtained have been tested for viability, GFP and human Kv4.3 expression. At the end of a selection process, UG1755 was identified as most suitable C. elegans strain amenable to high throughput screening (HTS). […] Briefly, dissected pharynxes of UG1755 C. elegans animals have been prepared and Electropharyngeograms (EPGs) have been recorded using an Axopatch-1D amplifier (Axon instruments). […] The number of ultra short EPGs (10-20 ms) and normal EPGs (100-200 ms) has been analyzed and given as ratio in percentage. […] In addition, standard qRT-PCR confirmed the presence of the human Kv4.3 transgene in UG1755 as well as human Kv4.3 protein has been detected with the human Kv4.3 antibody P 0358 in the pharynx of UG1755 animals.
Introducing the human Kv4.3 channel into the C. elegans pharynx influences the C. elegans action potential in a characteristic fashion. […] The pumping end-point can be technically translated into a high-throughput read-out by the use of a pro-fluorescent dye. […] After a defined incubation period, the change of fluorescence intensity in the intestine can be measured with a plate reader.

[2] = biological target: T1, human Kv4.3; experiment: C. elegans based high-throughput screen for Kv4.3 modulators (pharynx pumping, Calcein AM uptake), transgenic strain UG1755; type: in vivo
Source text: A C. elegans based high-throughput screen for Kv4.3 modulators has been used to establish an in vivo SAR (structure-activity relationships: the effect of chemical structure on biological activity) on Kv4.3 for the compounds according to the present invention.
This assay has employed a stable transgenic C. elegans strain that functionally expressed human Kv4.3 in the pharynx and a visible selection GFP maker in body-wall muscle.
The pharynx is the feeding organ of C. elegans and contracts rhythmically 3-4 times per second. The pharynx contraction is controlled by the nervous system via action potentials similar to the human myocyte and can thus be used to study human ion channel physiology in vivo in C. elegans.
Introducing the human Kv4.3 channel into the C. elegans pharynx influences the C. elegans action potential in a characteristic fashion. The additional number of potassium channels increases potassium ion efflux, enhances re-polarization and thereby shortens the action potential duration. […] The shortened action potentials of the C. elegans pharynx resulting from expression of human Kv4.3, changes the pharynx contraction-relaxation cycle and consequently reduces the pumping/feeding in these transgenic animals. This change of pumping is an end-point amenable to high-throughput screening technology. The pumping end-point can be technically translated into a high-throughput read-out by the use of a pro-fluorescent dye. The pro-fluorescent dye is taken up by C. elegans depending on its pumping activity and converted into a fluorescent dye by enzymes located in its intestines. After a defined incubation period, the change of fluorescence intensity in the intestine can be measured with a plate reader.
(§1) The screening of the compounds according to the present invention has been performed in the C. elegans based high-throughput screen for Kv4.3 modulators described above. The method for testing the activity on human Kv4.3 of the compounds according to the invention with C. elegans strains expressing human Kv4.3 for their activity is the same as the method described in WO 03/097682. The method for testing the compounds on wild-type C. elegans strains not expressing human Kv4.3 is the same as the method described in WO 00/63427. Briefly, UG1755 animals have been grown in large numbers and staged young adults (no or only few eggs inside the uterus) have been harvested on the day of screening. Approximately 125 animals in 80 μl buffer have been dispensed per well of a “U shaped 96-well compound plate The compound plate contained already compound material at a final concentration of 30 μM in 0.3% DMSO. After one hour incubation 10 μl of the fluorescent label Calcein AM (CAM) have been added to achieve a final concentration of 5 μM CAM and 0.8% DMSO. After another four hours of incubation at 20° C., the drinking of C. elegans animals (or the “reaction 8 measured by the uptake of CAM) has been stopped by adding 10 μl of a 60 μM ivermectin solution. The fluorescence intensity (counts per second) has been measured 40 minutes after adding ivermectin with the Wallac plate reader at a wavelength of 535 nm (after excitation at 485 nm).
The active compounds have been identified and confirmed by dose-response analysis. An EC50 has been calculated and the results are listed under Table 3. Dose-response curves have been obtained at concentrations of 30 μM. EC50 has been calculated using XLfit 2.09 software package.

[3] = system: C. elegans wild-type strain N2; experiment: Same C. elegans pumping assay format using wild-type strain N2; type: in vivo; settings: read-out: EC50 (μM) Wild type worm N2
Source text: as §1
These compounds have been also tested in the same assay format using a C. elegans wild-type strain N2 and the corresponding EC50 has been calculated. The ratio of the EC50s obtained for a compound on the two strains (transgenic expressing human Kv4.3 and wild-type) gives an indication on whether said compound is acting on human Kv4.3. […]

[4] = biological target: T2, human Kv4.3/KChIP2.2 potassium channel (Homo sapiens, UniProt Q9UK17); experiment: Whole cell patch clamp, CHO-K1 cells stably expressing human Kv4.3/KChIP2.2; type: cell-based; settings: Kv4.3 mediated current, charge; patch clamp; read-out: Kv4.3 charge IC50
T2 construct: expressed in transfected cells
T2 sequence (Q9UK17 1-655): T1 sequence (Q9UK17 1-655)

Molecule	ultra short action potentials of the human Kv4.3 transgenic C. elegans pharynx [1]	After Application of Compound Ratio Ultra short to Normal EPGs in % ([1]; 100 μM Flecainide, strain UG1755, n = 15, before application 83 ± 13) [%]	Ratio N2/Kv4.3 ([2]; EC50 on N2 divided by EC50 on the Kv4.3 expressing strain, cut-off 1.8)	EC50 ([2]; transgenic strain UG1755 expressing human Kv4.3, read-out: EC50 (μM) Kv4.3 worm) [µM]	EC50 [3] [µM]	pIC50 [4]
Nc1ccncc1 [4-aminopyridine]	restored to normal action potentials					
O=C(NCC1CCCCN1)c1cc(OCC(F)(F)F)ccc1OCC(F)(F)F (stereo not shown) [Flecainide]	restored to normal action potentials	53 ± 24				
2-(4-bromo-phenylamino)-4-methyl-thiazole-5-carboxylic acid (1R,2R)-2-(benzyloxycyclopent-1-yl) amide [Compound 25]			>25	10.3	> 30	5.88

Source: patent US20080125432A1 (Devgen NV, priority 2004, published 2008)
